The test system of test [1] is Staphylococcus aureus UC-76. Description: Antibacterial activity, microtitration dilution method. The following applies: UC76, read-out: minimum inhibitory concentration (MIC). In kind it is cell-based. The source says:
(§1) The compounds of the invention display antibacterial activity when tested by the microtitration dilution method as described in Heifetz, et al., Antimicr. Agents. & Chemoth. 6: 124 (1974) which is incorporated herein by reference.
(§2) By use of the above referenced method, the following minimum inhibitory concentration values (MICs in μg/mL) were obtained for representative compounds of the invention vs. clinically relevant gram positive pathogens which have become highly resistant to conventional therapy in recent years.

Test [2] concerns Streptococcus pneumonia 5V-1. The description is as above. It is filed as cell-based. The settings on record: Streptococcus pneumoniae, 5V1, read-out: minimum inhibitory concentration (MIC).
Source text: as §1, §2

For test [3], the system named is Staphylococcus aureus H228. The test is described as above. It is filed as cell-based. The following applies: read-out: minimum inhibitory concentration (MIC).
Source text: as §1, §2

The subject of test [4] is Enterococcus foecalis MGH2. The test is described as above. In kind it is cell-based. The following applies: read-out: minimum inhibitory concentration (MIC).
Source text: as §1, §2

For test [5], the system named is Streptococcus pyogenes C203. The test is described as above. In kind it is cell-based. The following applies: read-out: minimum inhibitory concentration (MIC).
Source text: as §1, §2

The target of the next test is T1, HIV-1 Protease (Human immunodeficiency virus type 1 group M subtype B, UniProt P04585).
T1 construct: HIV-1 Protease; purchased Bachem Bioscience Inc
Description: HIV protease inhibition (undecapeptide substrate cleavage, HPLC). The settings on record: 37° C., 5 min, 40 μM substrate, pH 4.7, 2% DMSO, read-out: 50% INHIBITION CONCENTRATION
In kind it is biochemical. How it is done:
1.0 mM dithiothreitol (DTT) was prepared fresh daily in 0.1% polyethylene glycol (mw 8000) 80 mM NaOAc, 160 mM NaCl, 1.0 mM EDTA, and brought to pH 4.7 with HCl.
The enzyme is obtained from Bachem Bioscience Inc. The undiluted enzyme is thawed from -80° C. and diluted 50-fold with DTT buffer. The solution is always kept at 0° C. on ice water and used in the experiment within 20 minutes after thawing.
Substrate III from Bachem Bioscience Inc. is the undecapeptide H-His-Lys-Ala-Arg-Val-Leu-p-Nitrophenylalanine-Glu-Ala-Norleucine-Ser-NH2 (>97% purity). A 200 μM stock solution in DTT buffer is prepared and stored on ice. Substrate solution is prepared fresh daily.
10 mM inhibitor (I) in dimethyl sulfoxide (DMSO) is diluted to 200 μM with DTT buffer. From the 200 μM stock solution is made a 10 μM stock solution with 2% DMSO in DTT buffer. The two inhibitor solutions are used to make final [I] =100, 50, 20, 10, 5, 2, 1, 0.5 and 0 μM with 2% DMSO in DTT buffer in each reaction well (total inhibitor volume of 50 μl).
To each reaction well is added 20 μl of substrate (final concentration of 40 μM), 50 μl of inhibitor (at a concentration such that final dilution will produce the test concentration) and 20 μl of DTT buffer. The reaction plate (96 wells) is incubated at 37° C. for at least 5 minutes.
10 μl of the diluted protease is added to the reaction well while the reaction plate is shaking. Once shaken for 10 seconds, the plate is returned to the heating block at 37° C. (final reaction volume 100 μl.)
The reaction is incubated for 5 minutes at 37° C. The reaction is stopped by placing the reaction plate on the shaker and adding 20 μl of 10% trifluoroacetic acid (TFA) and shaking for 10 seconds. The amount of proteolysis is then determined by separation of noncleaved substrate and two cleaved products with reverse-phase HPLC, while measuring absorbance at 220 nm to determine the relative peak areas of the three components. The relative peak areas are used to calculate % conversion to product as a function of inhibitor concentration. The data are plotted as % Control (the ratio of % conversion in the presence and absence of inhibitor×100) versus inhibitor concentration and fitted with the equation Y=100/1+(X/IC50)^A, where IC50 is the inhibitor concentration at 50% inhibition and A is the slope of the inhibition curve.

The test system of a further test is HIV1iiib in H9 cells. Description: Antiviral activity in H9 cells (acute HIV-1 infection, reverse transcriptase assay). The following applies: Human immunodeficiency virus 1, multiplicity of infection 0.01, 0.1% DMSO, read-out: Concentration for 50% Protection. In kind it is cell-based. How it is done:
Using the general methods of Pauwels et al., (J. Virol. Methods, 16, 171-185, 1987) and Mann et al. (AIDS Research and Human Retroviruses, 253-255, 1989 (anti-viral assays of active HIV-1 infection were performed in the H9 cell line. Cultures were batch infected in 1 ml of RPM1 1640 media/10% fetal calf serum containing 10^5 infectious doses of HIV1iiib for an effective multiplicity of infection of 0.01. After 2 hours of viral absorption, cells were washed once and palted in 96-wellmicrotiter plates at a density of 10^4 cells per well. Test compounds were added to produce the desired concentration of drug and 0.1% DMSO in a final volume of 200 μl. Uninfected parallel cultures were maintained for XTT cytotoxicity assay at 7 days post infection. Cultures were tested for viral replication by reverse transcriptase assay at 4 and 7 days post infection.

Another test has as its system HIV. The settings on record: R. Nagorny et al., AIDS 7: 129-130 (1993); cited from earlier work.

Converted amounts (≈) assume the structure as drawn.

Consider `CC(C)c1ccccc1SC1=C(O)CC(CCc2ccccc2)(c2ccccc2)OC1=O` (racemic) [Example 72, 5,6-Dihydro-4-hydroxy-3-(2-isopropylphenylthio)-6-phenyl-6-(2-phenylethyl)-2H-pyran-2-one], for which the MIC is 25 µg/mL (≈ 56.2 µM) in test [1]; 25 µg/mL (≈ 56.2 µM) in test [2]; 25 µg/mL (≈ 56.2 µM) in test [3]; 100 µg/mL (≈ 225 µM) in test [4]; 25 µg/mL (≈ 56.2 µM) in test [5].
Regarding `O=C1OC(CCc2ccccc2)(c2ccccc2)CC(O)=C1SCc1ccc2c(c1)OCO2` (racemic) [Example 107, 3-(Benzo[1,3]dioxol-5-ylmethylthio)-5,6-dihydro-4-hydroxy-6-phenyl-6-(2-phenylethyl)-2H-pyran-2-one], the MIC in test [1] was found to be 100 µg/mL (≈ 217 µM); in test [2] it was 50 µg/mL (≈ 109 µM); in test [3], 50 µg/mL (≈ 109 µM); in test [4] it was 50 µg/mL (≈ 109 µM); in test [5], 50 µg/mL (≈ 109 µM). Besides, the IC50 at HIV-1 Protease is 110 nM. Further, the EC50 in the test with HIV1iiib in H9 cells came to 8 µM.
For the compound `Cc1ccc(C(C)C)c(SC2=C(O)CC(CCc3ccc4c(c3)OCO4)(c3ccccc3)OC2=O)c1` (stereo not drawn) [Example 133], the MIC in test [1] turned out to be 12.5 µg/mL (≈ 24.9 µM); in test [2], 12.5 µg/mL (≈ 24.9 µM); in test [3] it was 6.25 µg/mL (≈ 12.4 µM); in test [4], 25 µg/mL (≈ 49.7 µM); in test [5], 25 µg/mL (≈ 49.7 µM).
Take `CC(=O)CC(c1ccccc1)c1c(O)c2ccccc2oc1=O` (stereo not drawn) [Warfarin, 3-(α-acetonylbenzyl)-4-hydroxycoumarin]: in the test with HIV, the “inhibition of cell-free and cell-mediated HIV infection (in words)” value was “inhibiting cell-free and cell-mediated HIV infection”.

Values taken from patent US5789440A, “5,6-dihydropyrone derivatives as protease inhibitors and antiviral agents” (Warner-Lambert Company, priority 1994, dated 1998).
